Results reported in US20250304560A1, “MODULATORS OF NLRP3 INFLAMMASOME AND RELATED PRODUCTS AND METHODS” (Neumora Therapeutics, Inc., priority 2022, published 2025).
Read-outs that look alike come from different tables or passages of the source.

What was measured:
[1] = biological target: NLRP3 inflammasome (Homo sapiens, UniProt Q96P20); test: NLRP3 inflammasome activation in THP1 macrophages, IL-1β AlphaLISA
[2] = tested on: IL-6; test: IL-6 AlphaLISA in LPS-primed THP1 macrophages
[3] = IL-1β Activity (nM), THP1 macrophages, PMA, LPS priming, nigericin 6.7 uM activation
[4] = Homo sapiens, THP-1, read-out: IL-6 Activity (μM), THP1 macrophages, PMA, LPS priming, nigericin 6.7 uM
[5] = Homo sapiens, THP-1, read-out: IL-6 Activity (μM)

NLRP3 inflammasome, sequence (Q96P20 whole entry): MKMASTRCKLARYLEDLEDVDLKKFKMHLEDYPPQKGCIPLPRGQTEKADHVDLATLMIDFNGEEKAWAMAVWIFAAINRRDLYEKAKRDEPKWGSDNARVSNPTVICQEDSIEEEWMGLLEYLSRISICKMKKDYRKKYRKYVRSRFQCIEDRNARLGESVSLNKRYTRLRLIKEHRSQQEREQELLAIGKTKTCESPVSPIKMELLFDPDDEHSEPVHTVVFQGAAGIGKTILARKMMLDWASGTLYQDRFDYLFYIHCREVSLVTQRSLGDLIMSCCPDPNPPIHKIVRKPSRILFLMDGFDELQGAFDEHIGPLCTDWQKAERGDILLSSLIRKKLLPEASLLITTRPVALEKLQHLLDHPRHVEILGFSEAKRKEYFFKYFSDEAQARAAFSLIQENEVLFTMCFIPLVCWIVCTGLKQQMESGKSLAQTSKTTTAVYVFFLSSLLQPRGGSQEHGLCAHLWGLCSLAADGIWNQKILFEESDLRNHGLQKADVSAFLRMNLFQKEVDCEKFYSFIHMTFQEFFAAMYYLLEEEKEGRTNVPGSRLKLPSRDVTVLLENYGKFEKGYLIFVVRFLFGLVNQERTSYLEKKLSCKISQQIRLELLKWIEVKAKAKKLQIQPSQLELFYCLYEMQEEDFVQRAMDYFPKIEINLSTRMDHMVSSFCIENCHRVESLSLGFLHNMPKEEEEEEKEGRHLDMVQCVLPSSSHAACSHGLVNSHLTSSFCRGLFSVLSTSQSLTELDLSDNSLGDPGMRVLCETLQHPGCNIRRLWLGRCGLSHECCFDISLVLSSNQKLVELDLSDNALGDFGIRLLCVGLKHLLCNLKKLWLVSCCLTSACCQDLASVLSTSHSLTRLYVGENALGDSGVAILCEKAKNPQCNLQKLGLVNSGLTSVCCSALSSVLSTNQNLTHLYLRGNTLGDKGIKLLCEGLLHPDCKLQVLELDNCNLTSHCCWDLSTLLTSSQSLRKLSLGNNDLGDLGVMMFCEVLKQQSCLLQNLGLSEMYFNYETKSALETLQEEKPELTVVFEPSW

Compound | IC50 [1, 3] | IC50 [2, 4] | IC50 [1] | IC50 [2, 5] | IC50 ([2]; read-out: IL-6 Activity, THP1 macrophages, PMA, LPS priming, nigericin 6.7 uM)
Cc1c(F)ccc(-c2ccc(N(C)[C@@H]3CCCN(C)C3)nn2)c1O [compound 24] | 10 to 100 nM | 1 to 5 µM |  |  | 
Cc1cc(C[C@@H]2CCCN(C)C2)nnc1-c1ccc(F)cc1O [compound 36, (S)-5-fluoro-2-(4-methyl-6-((1-methylpiperidin-3-yl)methyl)pyridazin-3-yl) phenol] |  |  | 10 to 100 nM | > 10 µM | 
Cc1cc(N(C)[C@@H]2CCCN(C)C2)nnc1-c1ccccc1O [compound 23] | 10 to 100 nM | > 10 µM |  |  | 
CN1CC[C@@H](Nc2ccc(-c3ccc(F)cc3O)nn2)C1 [compound 30] | > 1000 nM | > 10 µM |  |  | 
Cc1ccc(O)c(-c2nnc(N[C@@H]3CCCN(C)C3)cc2C)c1 [compound 68] | 10 to 100 nM | > 10 µM |  |  | 
CN1CCC[C@@H](N(C)c2ccc(-c3ccc(F)cc3O)nn2)C1 [compound 20] | > 1000 nM | 5 to 10 µM |  |  | 
Cc1cc(N(C)[C@@H]2CCCN(C)C2)nnc1-c1ccc(C2CC2)cc1O [compound 28] |  |  | < 1 nM | < 1 µM | 
Cc1cc(N[C@H]2CN(C)CC[C@@H]2F)nnc1-c1ccccc1O [compound 43] | 10 to 100 nM | > 10 µM |  |  | 
Cc1cc(N[C@H]2CN(C)CC[C@H]2F)nnc1-c1ccc(F)cc1O [compound 49] | 10 to 100 nM | > 10 µM |  |  | 
Cc1cc(-c2ccc(N[C@@H]3CCCN(C)C3)nn2)c(O)cc1F [compound 9] | 100 to 500 nM | > 10 µM |  |  | 
Cc1cc(N[C@@H]2C[C@@H](F)CN(C)C2)nnc1-c1ccccc1O [compound 41] | 10 to 100 nM |  |  |  | 
Cc1cc(C(F)(F)F)cc(O)c1-c1ccc(N[C@@H]2CCCN(C)C2)nn1 [compound 75] |  |  |  | > 10 µM | 
Cc1cc(N[C@@H]2CCCN(C)C2)nnc1-c1ccc(F)c(C)c1O [compound 38] | 1 to 10 nM |  |  |  | 1 to 5 µM
Cc1cc(-c2ccccc2O)nnc1N[C@@H]1CCCN(C)C1 [compound 8] | 1 to 10 nM | > 10 µM |  |  | 
Cc1cc(N(C)[C@@H]2CCCN(C)C2)nnc1-c1ccc(F)cc1O [compound 26] | 1 to 10 nM | > 10 µM |  |  | 
Cc1ccc(O)c(-c2ccc(N[C@@H]3CCCN(C)C3)nn2)c1 [compound 4] | 100 to 500 nM | > 10 µM |  |  | 
CCN1CCC[C@@H](Nc2cc(C)c(-c3ccc(F)cc3O)nn2)C1 [compound 58] | < 1 nM | 5 to 10 µM |  |  | 

Compound | IC50 [1, 3] | IC50 [2, 4] | IC50 [1] | IC50 [2, 5] | IC50 ([2]; read-out: IL-6 Activity, THP1 macrophages, PMA, LPS priming, nigericin 6.7 uM)
Cc1ccc(O)c(-c2ccc(N(C)[C@@H]3CCCN(C)C3)nn2)c1 [compound 19] | > 1000 nM | 5 to 10 µM |  |  | 
Cc1cc(C[C@@H]2CCCN(C)C2)nnc1-c1ccc(C(F)(F)F)cc1O [compound 37] |  |  | 500 to 1000 nM | > 10 µM | 
Cc1cc(N(C)[C@@H]2CCCN(C)C2)nnc1-c1ccc(F)c(C)c1O [compound 64] | 1 to 10 nM | > 10 µM |  |  | 
CCc1ccc(-c2ccc(N(C)[C@@H]3CCCN(C)C3)nn2)c(O)c1 [compound 27] | 10 to 100 nM | > 10 µM |  |  | 
Cc1cc(-c2nnc(N(C)[C@@H]3CCCN(C)C3)cc2C)c(O)cc1F [compound 66] | 100 to 500 nM | 5 to 10 µM |  |  | 
Cc1cc(N[C@H]2CN(C)CC[C@H]2F)nnc1-c1ccccc1O [compound 50] | 10 to 100 nM | > 10 µM |  |  | 
CCc1ccc(-c2ccc(N[C@@H]3CCCN(C)C3)nn2)c(O)c1 [compound 14] | 10 to 100 nM | > 10 µM |  |  | 
Cc1cc(-c2ccc(F)cc2O)nnc1O[C@@H]1CCCN(C)C1 [compound 35] |  |  | 10 to 100 nM | 5 to 10 µM | 
CCc1ccc(-c2cc(C)c(N[C@@H]3CCCN(C)C3)nn2)c(O)c1 [compound 16] | 1 to 10 nM |  |  |  | 
Cc1cc(N[C@H]2CN(C)CC(F)(F)C2)nnc1-c1ccccc1O [compound 40] | 500 to 1000 nM | > 10 µM |  |  | 
Cc1cc(-c2ccc(N(C)[C@@H]3CCCN(C)C3)nn2)c(O)cc1F [compound 25] | > 1000 nM | 1 to 5 µM |  |  | 
Cc1cc(-c2nnc(N[C@@H]3CCCN(C)C3)cc2C)c(O)cc1F [compound 65] | 1 to 10 nM | > 10 µM |  |  | 
CN1CC[C@@H](Nc2ccc(-c3ccccc3O)nn2)C1 [compound 31] | > 1000 nM | > 10 µM |  |  | 
CCc1cc(C)c(-c2ccc(N[C@@H]3CCCN(C)C3)nn2)c(O)c1 [compound 12] | < 1 nM | > 10 µM |  |  | 
Cc1cc(N[C@@H]2CCCN(CCF)C2)nnc1-c1ccc(F)cc1O [compound 44] | 1 to 10 nM | > 10 µM |  |  | 
Cc1cc(N[C@@H]2CCCN(CCF)C2)nnc1-c1ccccc1O [compound 39] | 10 to 100 nM | > 10 µM |  |  | 

Next, values leading:

IC50 [1, 3] | IC50 [2, 4] | IC50 [1] | IC50 [2, 5] | IC50 ([2]; read-out: IL-6 Activity, THP1 macrophages, PMA, LPS priming, nigericin 6.7 uM) | Compound
 |  | 10 to 100 nM | > 10 µM |  | Cc1cc(F)cc(O)c1-c1ccc(O[C@@H]2CCCN(C)C2)nn1 [compound 72]
500 to 1000 nM | > 10 µM |  |  |  | Cc1cc(-c2ccc(F)cc2O)nnc1N[C@@H]1CCCN(CCF)C1 [compound 86]
 | > 10 µM |  |  |  | Cc1cc(-c2ccc(C(F)(F)F)cc2O)nnc1N[C@@H]1CCCN(C)C1 [compound 74]
 |  | 100 to 500 nM | > 10 µM |  | Cc1cc(N[C@@H]2CCCN(C)C2)nnc1-c1ncccc1O [compound 108]
 |  | > 1000 nM | > 10 µM |  | Cc1cc(NC[C@@H]2CCC(F)(F)C2)nnc1-c1ccccc1O [compound 114]
> 1000 nM | > 10 µM |  |  |  | Cc1cc(N[C@@H]2CC[C@@H](C(=O)O)N(C)C2)nnc1-c1ccccc1O [compound 95]
 |  | > 1000 nM | > 10 µM |  | Cc1cc(NC[C@H]2CCCO2)nnc1-c1ccccc1O [compound 116]
 |  | > 1000 nM | > 10 µM |  | Cc1cc(O[C@@H]2CCCN(C)C2)nnc1-c1ccc(C(F)(F)F)cc1O [compound 73, (R)-2-(4-methyl-6-((1-methylpiperidin-3-yl)oxy)pyridazin-3-yl)-5-(trifluoromethyl) phenol]
 |  | 10 to 100 nM | > 10 µM |  | Cc1cc(C[C@@H]2CCCN(C)C2)nnc1-c1ccccc1O [compound 70]
 |  | 100 to 500 nM | > 10 µM |  | Cc1cc(-c2ccc(C(F)(F)F)cc2O)nnc1O[C@@H]1CCCN(C)C1 [compound 98]
< 1 nM | > 10 µM |  |  |  | Cc1cc(N(C)[C@@H]2CCCN(C)C2)nnc1-c1ccc(C#N)cc1O [compound 90]
1 to 10 nM | > 10 µM |  |  |  | Cc1cc(N[C@@H]2CCN(C)C2)nnc1-c1ccc(C(F)(F)F)cc1O [compound 96]
 |  | > 1000 nM | > 10 µM |  | Cc1cc(NC[C@@H]2COCCO2)nnc1-c1ccccc1O [compound 120]
 |  | > 1000 nM | > 10 µM |  | Cc1cc(NC[C@H]2CCC(F)(F)C2)nnc1-c1ccccc1O [compound 113]
 |  | > 1000 nM | > 10 µM |  | Cc1cc(N2CCC[C@@H](N(C)C)C2)nnc1-c1ccc(C#N)cc1O [compound 112]
1 to 10 nM | > 10 µM |  |  |  | Cc1cc(-c2c(C)cc(F)cc2O)nnc1N[C@@H]1CCCN(C)C1 [compound 84]
 |  | > 1000 nM | > 10 µM |  | Cc1cc(NC[C@@H]2CCCN2C)nnc1-c1ccccc1O [compound 121]
100 to 500 nM | < 1 µM |  |  |  | Cc1cc(-c2cc(C)c(N[C@@H]3CCCN(C)C3)nn2)c(O)cc1F [compound 79]
1 to 10 nM | > 10 µM |  |  |  | Cc1cc(-c2cccc(C)c2O)nnc1N[C@@H]1CCCN(C)C1 [compound 81]

IC50 [1, 3] | IC50 [2, 4] | IC50 [1] | IC50 [2, 5] | IC50 ([2]; read-out: IL-6 Activity, THP1 macrophages, PMA, LPS priming, nigericin 6.7 uM) | Compound
 |  | > 1000 nM | > 10 µM |  | Cc1cc(-c2ccccc2O)nnc1O[C@@H]1CCCN(C)C1 [compound 99]
10 to 100 nM | < 1 µM |  |  |  | Cc1ccc(-c2cc(C)c(N[C@@H]3CCCN(C)C3)nn2)c(O)c1 [compound 82]
> 1000 nM | > 10 µM |  |  |  | Cc1cc(N[C@@H]2CC[C@@H](C(=O)O)NC2)nnc1-c1ccccc1O [compound 94]
 |  | > 1000 nM | > 10 µM |  | Cc1cc(NCC2CCOCC2)nnc1-c1ccccc1O [compound 115]
 |  | < 1 nM | > 10 µM |  | Cc1cc(N[C@@H]2CCCN(C)C2)nnc1-c1ncc(C(F)(F)F)cc1O [compound 107]
 |  | 10 to 100 nM | > 10 µM |  | Cc1cc(O[C@@H]2CCCN(C)C2)nnc1-c1ccccc1O [compound 71]
> 1000 nM | > 10 µM |  |  |  | Cc1cc(-c2ccc(C(=O)O)cc2O)nnc1N[C@@H]1CCCN(C)C1 [compound 93]
1 to 10 nM |  |  |  |  | Cc1cc(-c2ccc(Cl)cc2O)nnc1N[C@@H]1CCCN(C)C1 [compound 83]
 |  | > 1000 nM | > 10 µM |  | Cc1cc(C[C@H]2CCCN(C)C2)nnc1-c1ccc(F)cc1O [compound 106, (R)-5-fluoro-2-(4-methyl-6-((1-methylpiperidin-3-yl)methyl)pyridazin-3-yl) phenol]
10 to 100 nM | > 10 µM |  |  |  | Cc1cc(-c2ccc(C#N)cc2O)nnc1N[C@@H]1CCCN(C)C1 [compound 91]
1 to 10 nM | 5 to 10 µM |  |  |  | Cc1cc(N[C@@H]2CCCN(C)C2)nnc1-c1c(C)cccc1O [compound 69]
 |  | > 1000 nM | > 10 µM |  | COC(C)(C)CNc1cc(C)c(-c2ccccc2O)nn1 [compound 124]
1 to 10 nM | 5 to 10 µM |  |  |  | Cc1cc(-c2nnc(N[C@@H]3CCCN(C)C3)cc2C)c(O)cc1C(F)(F)F [compound 76]
10 to 100 nM | > 10 µM |  |  |  | Cc1cc(-c2ccc(F)cc2O)nnc1N[C@@H]1CCCN(C)C1 [compound 77]
 |  | > 1000 nM | > 10 µM |  | Cc1cc(-c2ccc(C#N)cc2O)nnc1O[C@@H]1CCCN(C)C1 [compound 101]
 |  | > 1000 nM | > 10 µM |  | Cc1cc(C[C@H]2CCCN(C)C2)nnc1-c1ccccc1O [compound 105]
1 to 10 nM | > 10 µM |  |  |  | Cc1cc(-c2c(C)cccc2O)nnc1N[C@@H]1CCCN(C)C1 [compound 78]
 |  | > 1000 nM | > 10 µM |  | COC(C)(C)C(=O)Nc1cc(C)c(-c2ccccc2O)nn1 [compound 123]
 |  | > 1000 nM |  |  | Cc1cc(NC[C@H]2COCCO2)nnc1-c1ccccc1O [compound 119]
